# What was measured:
# [1] = molecular target: T1, human notum pectinacetyltransferase (Homo sapiens, UniProt Q6P988); assay: Reporter assay (CellSensor LEF/TCF-bla FreeStyle 293F cells, Wnt3a and notum conditioned media); assay type: cell-based; conditions: class symbols
# T1 construct: made in house; unpurified conditioned medium used
# T1 sequence (Q6P988 20-496): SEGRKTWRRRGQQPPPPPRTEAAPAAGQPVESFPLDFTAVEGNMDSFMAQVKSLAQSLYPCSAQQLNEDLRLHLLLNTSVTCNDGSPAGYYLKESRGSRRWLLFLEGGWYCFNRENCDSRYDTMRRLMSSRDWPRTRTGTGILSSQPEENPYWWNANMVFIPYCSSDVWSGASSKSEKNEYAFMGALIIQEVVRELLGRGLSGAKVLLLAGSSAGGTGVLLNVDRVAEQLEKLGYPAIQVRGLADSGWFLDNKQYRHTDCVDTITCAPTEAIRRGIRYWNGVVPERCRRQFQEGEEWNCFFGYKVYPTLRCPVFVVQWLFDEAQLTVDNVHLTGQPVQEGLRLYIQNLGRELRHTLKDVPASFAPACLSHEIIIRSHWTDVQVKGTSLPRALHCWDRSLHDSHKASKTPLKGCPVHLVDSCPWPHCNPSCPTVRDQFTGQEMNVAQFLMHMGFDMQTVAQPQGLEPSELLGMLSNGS
# Protocol: Plasmid containing human notum pectinacetyltransferase in pcDNA3.1(+) vector was transfected into HEK (293 cells and clones were selecting by growing in presence of 400 ug/mL of G418. The clone containing highest expression of human notum pectinacetyltransferase in the conditioned media was maintained for all future activity assays. L cells overexpressing and secreting Wnt3a into the conditioned media were purchased from ATCC.
# The assay protocol was as follows. […] The cell growth medium consisted of DMEM with 10% Dialyzed FBS, 5 μg/ml Blasticidin (Invitrogen, R210-01), 0.1 mM NEAA, 25 mM HEPES and 1×GPS. Cells were then trypsinized by first rinsing with PBS, followed by addition of 5 mL of trypsin and incubation of plates at room temperature for two minutes. A total of 10 mL of assay media (Opti-MEM, plus 0.5% dialyzed FBS, 0.1 mM NEAA, 1 mM sodium pyruvate, 10 mM HEPES, 1×GPS) was then added per 15 cm plate. Cells were counted and suspended at 0.75 million cells per mL. […] After incubation of cells at 37° C. for 3 hours, 10 μL of 30 mM LiCl in assay medium was added per well, followed by incubation at 37° C. for another 3 hours. […] Ten μL of the Wnt3a/notum pentinacetyltransferase mixture was then transferred from Greiner plates to each well of the 384-well plates containing the CellSensor cells.
# [2] = molecular target: T1, human notum pectinacetyltransferase; assay: Binding assay (OPTS esterase substrate, fluorimetric); assay type: biochemical
# Protocol: Plasmid containing human notum pectinacetyltransferase in pcDNA3.1(+) vector was transfected into HEK (293 cells and clones were selecting by growing in presence of 400 ug/mL of G418. Condition media from these cells was used for the assay.
# [3] = given as numeric bound above the legend's highest class
# [4] = given as a numeric bound above the legend's range
SMILES,EC50 [1] [nM],IC50 ([2]; class symbols) [nM],"IC50 [2, 3] [nM]","IC50 [2, 4] [nM]"
CC(C)(C#N)NC(=O)c1cc2c(s1)-c1ccccc1CC2,< 500,< 1000,–,–
O=C(O)c1cc2c(s1)-c1ccccc1S(=O)(=O)CC2,< 1000,–,> 2000,–
O=C(O)c1cc2c(s1)-c1cc(F)ccc1CCC2,< 1000,< 1000,–,–
"CCOC(=O)c1cc2c(s1)-c1ccc(OC)cc1CC2 [ethyl 7-methoxy-4,5-dihydronaphtho[1,2-b]thiophene-2-carboxylate]",< 500,–,> 2000,–
N#CCCNC(=O)c1cc2c(s1)-c1cccc(F)c1CC2,< 100,< 100,–,–
Cc1ccc2c(c1F)CCc1cc(C(N)=O)sc1-2,< 50,< 50,–,–
O=C(O)c1cc2c(s1)-c1cc(F)cc(Cl)c1SC2,< 50,< 50,–,–
Cc1ccc2c(c1F)OCc1cc(C(=O)O)sc1-2,< 50,< 1000,–,–
COC(=O)C1CN(C(=O)c2cc3c(s2)-c2cc(C)cc(F)c2CC3)CC1c1ccccc1 (stereo not shown),< 50,< 1000,–,–
Cc1cc(Cl)cc2c1OCc1cc(C(N)=O)sc1-2,< 50,< 1000,–,–
O=C(O)C1CN(C(=O)c2cc3c(s2)-c2ccc(Cl)c(Cl)c2OC3)CC1c1ccccc1F (racemic),< 50,< 50,–,–
Cc1cc2c(cc1Cl)-c1sc(C(=O)O)cc1CO2,< 50,< 1000,–,–
"Cc1cc(C)c2c(c1)-c1sc(C(=O)NCC(=O)O)cc1CC2 [2-(6,8-dimethyl-4,5-dihydronaphtho[1,2-b]thiophene-2-carboxamido)acetic acid]",< 100,< 1000,–,–
NC(=O)c1cc2c(s1)-c1cc(F)ccc1CCC2,< 50,< 50,–,–
NC(=O)c1cc2c(s1)-c1cc(F)cc(Cl)c1SC2,< 50,< 100,–,–
CCOC(=O)c1cc2c(s1)-c1ccc(C)c([N+](=O)[O-])c1CC2,< 50,< 100,–,–
NC(=O)c1cc2c(s1)-c1cc(F)cc(F)c1CC2,< 50,< 50,–,–
CCCNC(=O)c1cc2c(s1)-c1ccccc1CC2,< 500,< 100,–,–
N#Cc1ccc2c(c1)-c1sc(C(=O)O)cc1CC2,< 1000,–,> 2000,–
Cc1c(F)ccc2c1OCc1cc(C(N)=O)sc1-2,< 50,< 50,–,–
NC(=O)c1cc2c(s1)-c1c(F)cccc1OC2,< 50,< 50,–,–
O=C(c1cc2c(s1)-c1ccc(Cl)c(Cl)c1OC2)N1CCC(F)C1 (stereo not shown),< 50,< 1000,–,–
CC1Cc2cc(C(=O)O)sc2-c2cc(F)c(F)cc21 (stereo not shown),< 50,< 1000,–,–
O=C(O)c1cc2c(s1)-c1cccc(Cl)c1CC2,< 50,< 100,–,–
CN(C)C(=O)c1cc2c(s1)-c1ccccc1CC2,< 50,< 1000,–,–
CC1Cc2ccccc2-c2sc(C(=O)O)cc21 (stereo not shown),< 50,< 2000,–,–

SMILES,EC50 [1] [nM],IC50 ([2]; class symbols) [nM],"IC50 [2, 3] [nM]","IC50 [2, 4] [nM]"
COC(C)(C)CNC(=O)c1cc2c(s1)-c1ccc(Cl)c(F)c1OC2,< 500,–,> 2000,–
O=C(NCc1ccccn1)c1cc2c(s1)-c1ccc(F)c(F)c1CC2,< 50,< 50,–,–
COC(=O)C1CCN(C(=O)c2cc3c(s2)-c2cc(F)cc(F)c2SC3)C1 (stereo not shown),< 50,< 1000,–,–
O=C(O)c1cc2c(s1)-c1ccc(C(F)(F)F)cc1OC2,< 50,< 1000,–,–
COCCNC(=O)c1cc2c(s1)-c1ccc(OC)c(Cl)c1CC2,< 50,< 1000,–,–
NC(=O)c1cc2c(s1)-c1cccc(F)c1CC2,< 50,< 50,–,–
O=C(O)c1cc2c(s1)-c1cc(Cl)c(Cl)cc1CC2,< 50,< 100,–,–
NC(=O)c1cc2c(s1)-c1cc(Br)ccc1OC2,< 50,< 1000,–,–
Cc1ccc2c(c1Cl)CCc1cc(C(N)=O)sc1-2,< 50,< 50,–,–
O=C(NCc1ncco1)c1cc2c(s1)-c1cccc(F)c1CC2,< 50,< 100,–,–
O=C(NCCc1nnn[nH]1)c1cc2c(s1)-c1cccc(F)c1CC2,< 50,< 1000,–,–
CCOC(=O)c1cc2c(s1)-c1cc(C)cc(C)c1CC2,< 100,< 2000,–,–
Cc1c(F)ccc2c1OCc1cc(C(=O)O)sc1-2,< 50,< 1000,–,–
COc1ccc2c(c1)-c1sc(C(=O)O)cc1CC2,< 500,–,> 2000,–
CC1Cc2cc(C(=O)O)sc2-c2c(F)ccc(F)c21 (stereo not shown),< 50,< 50,–,–
CCOC(=O)c1cc2c(s1)-c1ccc(C)c(Cl)c1CC2,< 50,< 1000,–,–
"COc1ccc2c(c1)CCc1cc(C(=O)O)sc1-2 [7-methoxy-4,5-dihydronaphtho[1,2-b]thiophene-2-carboxylic acid]",< 50,< 2000,–,–
O=C(O)c1cc2c(s1)-c1ccc(F)cc1SC2,< 50,< 1000,–,–
COC(=O)C1CN(C(=O)c2cc3c(s2)-c2ccc(Cl)c(F)c2OC3)CC1c1ccccc1F (stereo not shown),< 50,< 100,–,–
NC(=O)c1cc2c(s1)-c1ccc(F)c(F)c1CC2,< 50,< 50,–,–
Cc1cc2c(cc1F)-c1sc(C(=O)O)cc1CO2,< 50,< 100,–,–
O=C(O)c1cc2c(s1)-c1ccccc1SCC2,< 100,–,> 2000,–
O=C(c1cc2c(s1)-c1cc(Cl)cc(F)c1OC2)N1CCC(F)C1 (stereo not shown),< 50,< 1000,–,–
COC(=O)CNC(=O)c1cc2c(s1)-c1ccccc1CC2,< 50,< 1000,–,–
O=C(O)c1cc2c(s1)-c1cc(F)ccc1S(=O)(=O)C2,< 50,< 1000,–,–
NC(=O)c1cc2c(s1)-c1cccc(Cl)c1OC2,< 50,< 1000,–,–

# Further lines, results first:
EC50 [1] [nM],IC50 ([2]; class symbols) [nM],"IC50 [2, 3] [nM]","IC50 [2, 4] [nM]",SMILES
< 50,< 1000,–,–,Cc1cc(C)c2c(c1)-c1sc(C(=O)O)cc1CO2
< 50,< 50,–,–,Cc1cc(C)c2c(c1)-c1sc(C(=O)O)cc1CC2
< 50,< 50,–,–,NC(=O)c1cc2c(s1)-c1c(F)ccc(Cl)c1OC2
< 50,< 100,–,–,NC(=O)c1cc2c(s1)-c1cc(F)c(F)cc1OC2
< 50,< 50,–,–,Cc1ccc2c(c1[N+](=O)[O-])CCc1cc(C(=O)O)sc1-2
< 50,< 1000,–,–,COc1ccc2c(c1Cl)CCc1cc(C(=O)NCCN3CCOCC3)sc1-2
< 50,< 50,–,–,COc1ccc2c(c1Br)CCc1cc(C(=O)O)sc1-2
< 50,< 100,–,–,N#CC1CCN(C(=O)c2cc3c(s2)-c2ccc(Cl)c(Cl)c2OC3)C1 (stereo not shown)
< 50,< 50,–,–,Cc1cc(Cl)c2c(c1)-c1sc(C(N)=O)cc1CC2
< 50,–,–,> 2000,Cc1ccc(C)c2c1SCc1cc(C(=O)O)sc1-2
< 50,< 50,–,–,NC(=O)c1cc2c(s1)-c1cc(F)c(F)c(F)c1SC2
< 50,< 2000,–,–,NC(=O)c1cc2c(s1)-c1cc(Cl)cc(Cl)c1SC2
< 50,< 100,–,–,Cc1cc(F)cc2c1OCc1cc(C(=O)O)sc1-2
< 50,–,–,> 2000,Cc1cc(C)c2c(c1)OCc1cc(C(=O)O)sc1-2
< 50,< 50,–,–,"CCOC(=O)c1cc2c(s1)-c1ccc(C)c(C#N)c1CC2 [ethyl 6-cyano-7-methyl-4,5-dihydronaphtho[1,2-b]thiophene-2-carboxylate]"
< 50,< 50,–,–,O=C(O)c1cc2c(s1)-c1cc(F)c(F)cc1CC2
< 50,< 100,–,–,O=C(O)CNC(=O)c1cc2c(s1)-c1ccccc1CC2
< 50,< 1000,–,–,O=C(O)c1cc2c(s1)-c1ccc(F)c(F)c1OC2
< 50,< 1000,–,–,COc1ccc2c(c1Cl)CCc1cc(C(=O)NCCC#N)sc1-2
< 50,< 50,–,–,COc1ccc2c(c1Cl)CCc1cc(C(=O)N3CCC(F)C3)sc1-2 (stereo not shown)
< 50,< 1000,–,–,"Nc1c(C(=O)O)sc2c1CSc1ccccc1-2 [3-amino-4H-thieno[3,2-c]thiochromene-2-carboxylic acid]"
< 50,< 100,–,–,NC(=O)c1cc2c(s1)-c1cc(Cl)cc(F)c1OC2
